Data reported in PubChem BioAssay AID1626 (SRMLSC, 2009).

System: M. tuberculosis H37Rv growth inhibition
Assay: M. tuberculosis H37Rv growth inhibitors, H37Rv strain (AID 1626)
Settings: for IC90: measured here: IC90 against H37Rv; for CC50: measured here: Vero cell cytotoxicity

Row | Compound | IC50 [µM] | IC90 [µM] | CC50 [µM]
1 | CN1CCN(c2nc(-c3ccccc3)nc(-c3ccc(F)cc3)c2C#N)CC1 | 23.9 | > 100 | > 40
2 | OC(CN1CCN(Cc2ccccc2)CC1)Cn1c2ccccc2c2ccccc21 (stereo unspecified) | 16.5 | 22.9 | > 40
3 | CCOc1ccc(N2C(=O)c3ccccc3C2=O)cc1 | – | > 100 | –
4 | O=c1[nH]c(CN2CCCCC2)nc2c1C1(CCCCC1)Cc1ccccc1-2 | 4.01 | > 100 | –
5 | Cc1ccc(C(=O)CC(=O)c2cc(Cl)ccc2O)cc1 | 3.48 | 4.67 | 20.2
6 | COc1ccc(-c2nc(NC(=O)c3cc(C(C)(C)C)nn3C)sc2C)cc1 | 4.42 | 8.83 | > 40
7 | COC(=O)c1cccc(OC(N)=O)c1 | 72.9 | > 100 | –
8 | O=C(CCSc1ccccc1)Nc1nnc(-c2ccccc2)o1 | – | > 100 | –
9 | Oc1cccc2ccc(/C=C/c3cccs3)nc12 | 1.49 | 4.51 | > 40
10 | Cc1ccc(C2CC(C(F)(F)F)n3nc(C(=O)NCc4ccco4)cc3N2)cc1 (stereo unspecified) | 0.92 | 1.79 | –
11 | CN1CCN(c2oc(COc3ccc(-c4ccccc4)cc3)nc2C#N)CC1 | 15.4 | 28.7 | > 40
12 | N#CC(C(=O)C12CC3CC(CC(C3)C1)C2)c1nc2ccccc2[nH]1 (stereo unspecified) | 9.8 | > 100 | > 40
13 | COc1ccc(C[C@H]2CN3C(=NC[C@@H]3Cc3ccccc3)N2CCNC(=O)CCC2CCCCC2)cc1 | 9.05 | 11.6 | 17.7
14 | O=C(OCC#CCSc1nnc(-c2ccccc2)o1)c1ccco1 | 1.16 | 3.94 | –
15 | O=C(Nc1nccs1)c1ccccn1 | 6.09 | 15.7 | > 40
16 | CC(C)OC(=O)CSc1ncnc2c1cnn2-c1ccccc1 | 8.75 | 25.2 | –
17 | Cc1nc(-c2ccccn2)nc(SCC(=O)c2ccccc2)c1Cl | 3.68 | 6.49 | > 40
18 | CCOC(=O)c1cnc(-n2nc(C)cc2C)nc1N(CC)CC | 3.78 | 6.53 | > 40
19 | CCS(=O)(=O)Nc1cccc(-c2cc(-c3ccccc3)c3cc(C)ccc3n2)c1 | 5.97 | 11.1 | > 40
20 | CCOC(=O)C1CCCN(c2ccc([N+](=O)[O-])c3nonc23)C1 (stereo unspecified) | 1.46 | 1.6 | –
21 | O=C(c1ccc2c(c1)[nH]c(=S)n1c3ccccc3nc21)N1CCN(c2cccc(Cl)c2)CC1 | 4.39 | 32.3 | 26.5
22 | Cc1[nH]n2c(=O)cc(-c3ccc([N+](=O)[O-])cc3)nc2c1-c1ccccc1 | 0.747 | 1.43 | 35.1
23 | CC(C)[C@H]1C(=O)O[C@H](C(C)C)C(=O)N(C)[C@@H](C(C)C)C(=O)O[C@H](C(C)C)C(=O)N(C)[C@@H](C(C)C)C(=O)O[C@H](C(C)C)C(=O)N1C | 7.26 | 8.9 | 12.3
24 | Cn1c(NCc2ccccc2)nc2c1c(=O)n(Cc1ccc(Br)cc1)c(=O)n2C | 13.8 | > 100 | > 40
25 | CCOc1ccc(N2CC(=O)Nc3ccccc3NCC2=O)cc1 | 12.5 | > 100 | –
26 | c1ccc(-c2nc(N3CCCCCC3)nc(-n3ccnc3)n2)cc1 | 0.253 | 1.9 | 30
27 | CCn1c(NC(=O)c2cccs2)nc2ccccc21 | 5.32 | > 100 | –
28 | CCc1c(O)nc(SCC(=O)Nc2ccc3c(c2)CCC3)[nH]c1=O | 57.4 | > 100 | –
